Experimental data: the supplement of paper PMC10307832

Tests used:
Assay in all cases: relative viability (nuclei count vs DMSO), 5 days (fraction); higher = more cells survive
[1] = compound: C1=CC=C(C(=C1)C2=CC=C(C=C2)C3=CSC4=C3C(=C(C(=O)N4)C#N)O)O + COc1cccc2cc(-c3nc([C@H]4CC[C@H](C(=O)O)CC4)n4ncnc(N)c34)[nH]c12 [OSI-027] (partner 0.5 µM)
Summary of the method: (§1)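 A single step with final 0.05% Triton X-100, 1% formaldehyde and 1 ug/ml Hoechst fixed the cells and stained nuclei 5 days after treatment. Lung cancer cell lines in 1536-well plates had been treated by pin tool the day after seeding with one drug alone or a fixed anchor-drug dose plus five library-drug doses (not always all listed) in √10 steps, and nuclei were counted on 4× images. Relative viability is the ratio of nuclei in treated wells to nuclei in vehicle wells, taken as the median of duplicate plates.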

[2] = compound: C1=CC=C(C(=C1)C2=CC=C(C=C2)C3=CSC4=C3C(=C(C(=O)N4)C#N)O)O + Nc1nc2[nH]cc(CCc3ccc(C(=O)N[C@@H](CCC(=O)O)C(=O)O)cc3)c2c(=O)[nH]1 [Pemetrexed] (partner 0.2 µM)
Summary of the method: as §1

[3] = compound: C1=CC=C(C(=C1)C2=CC=C(C=C2)C3=CSC4=C3C(=C(C(=O)N4)C#N)O)O + O=C(CCCCCCC(=O)Nc1ccccc1)NO [Vorinostat] (partner 1 µM)
Summary of the method: as §1

TGX 221 + Pictilisib = compound: CC1=CN2C(=O)C=C(N=C2C(=C1)C(C)NC3=CC=CC=C3)N4CCOCC4 [TGX 221] + CS(=O)(=O)N1CCN(Cc2cc3nc(-c4cccc5[nH]ncc45)nc(N4CCOCC4)c3s2)CC1 [Pictilisib] (partner 1 µM)
Summary of the method: as §1

Cell Line	relative viability ([1]; first compound 0.08 µM)	relative viability ([1]; first compound 0.253 µM)	relative viability ([1]; first compound 0.8 µM)	relative viability ([1]; first compound 2.53 µM)	relative viability ([1]; first compound 8 µM)	relative viability ([2]; first compound 0.08 µM)	relative viability ([2]; first compound 0.253 µM)	relative viability ([2]; first compound 0.8 µM)	relative viability ([2]; first compound 2.53 µM)	relative viability ([2]; first compound 8 µM)	relative viability ([3]; first compound 0.08 µM)	relative viability ([3]; first compound 0.253 µM)	relative viability ([3]; first compound 0.8 µM)	relative viability ([3]; first compound 2.53 µM)	relative viability ([3]; first compound 8 µM)	relative viability (TGX 221 + Pictilisib; first compound 0.253 µM)	relative viability (TGX 221 + Pictilisib; first compound 0.8 µM)	relative viability (TGX 221 + Pictilisib; first compound 2.53 µM)	relative viability (TGX 221 + Pictilisib; first compound 8 µM)	relative viability (TGX 221 + Pictilisib; first compound 0.08 µM)
201T	0.709	0.665	0.795	0.699	0.531	0.354	0.331	0.358	0.353	0.298	0.874	0.952	0.811	1	0.902	0.715	0.689	0.63	0.621	
A549																0.496	0.46	0.494	0.396	0.485
A-427	0.363	0.505	0.514	0.432	0.452	0.941	1.11	1.03	1.01	0.989	0.923	0.861	0.864	0.904	0.859	0.7	0.679	0.676	0.676	0.613
ABC-1	0.37	0.477	0.478	0.424	0.257						0.813	0.921	1.03	0.956	0.768	0.491	0.94	0.766	0.704	0.677
BEN	0.305	0.303	0.497	0.313	0.286	0.694	0.786	0.761	0.857	0.761	0.567	0.678	0.59	0.531	0.573	0.519	0.521	0.503	0.456	0.552
CAL-12T	0.589	1.14	0.591	0.59	0.431	0.958	1.23	1.24	1.43	1.33	0.65	0.817	0.884	0.743	0.643	0.415	0.376		0.519	
COR-L23	0.614	0.715	0.534	1.11	0.723	0.222	0.228	0.212	0.189	0.19	0.404	0.477	0.409	0.38	0.379	0.713	0.757	0.771	0.892	0.746
COR-L 105	0.72	0.737	0.734	0.628	0.602	0.948	1.16	1.1	1.11	1.15	0.763	0.807	0.805	1.01	0.706	0.412	0.424	0.469	0.421	0.458
Calu-6																0.889	0.86	0.922	0.896	0.953
ChaGo-K-1	0.475	0.569	0.485	0.571	0.528	0.271	0.257	0.256	0.251	0.256	0.733	0.821	0.801	0.822	0.683	0.644	0.683	0.47	0.966	0.548
EBC-1																0.366	0.369	0.291	0.304	0.331
EKVX	0.777	0.775	0.71	0.724	0.509	0.425	0.497	0.399	0.465	0.336	0.672	1.01	0.758	0.653	0.561	0.458	0.448	0.39	0.404	0.337
EMC-BAC-2	0.41	0.411	0.312	0.355	0.357	0.447	0.618	0.444	0.451	0.418	0.463		0.331	0.435	0.362	0.523	0.535	0.471	0.535	0.535
EPLC-272H	0.253	0.286	0.263	0.27	0.289	0.346	0.249	0.297	0.32	0.441	0.466	0.387	0.357	0.401	0.42	0.295	0.369		0.339	0.259
H3255	0.684	0.599	0.671	0.553	0.532	0.561	0.563	0.561	0.591	0.54	0.823	0.863		0.886	0.784	0.445	0.45	0.492	0.539	0.466
HARA	0.386	0.661	0.524	0.428	0.297	0.241	0.274	0.219	0.197	0.264		0.792	0.701		0.371	0.469	0.372	0.361	0.585	0.538
HCC-15	0.667	0.735	0.699	0.704	0.571	0.237	0.232	0.213	0.242	0.215	0.861	0.954	0.869	0.905	0.725	0.706	0.784	0.71	0.782	0.806
HCC-44		0.588	0.518	0.558	0.523	0.702	0.61	0.649	0.613	0.57	1.15	1.12	1.13	1.08	1.06	0.571	0.615	0.555	0.541	0.648
HCC-78	0.42	0.405	0.397	0.381	0.326	0.79	0.946	0.903	0.959	0.883	0.514	0.678	0.448	0.523	0.352	0.179		0.231	0.231	0.242
HCC-366	1.32	1.18	0.875	0.945	0.719		0.172	0.168	0.176	0.165		0.35	0.348	0.309	0.315	0.152	0.102	0.147	0.0862	0.103

Cell Line	relative viability ([1]; first compound 0.08 µM)	relative viability ([1]; first compound 0.253 µM)	relative viability ([1]; first compound 0.8 µM)	relative viability ([1]; first compound 2.53 µM)	relative viability ([1]; first compound 8 µM)	relative viability ([2]; first compound 0.08 µM)	relative viability ([2]; first compound 0.253 µM)	relative viability ([2]; first compound 0.8 µM)	relative viability ([2]; first compound 2.53 µM)	relative viability ([2]; first compound 8 µM)	relative viability ([3]; first compound 0.08 µM)	relative viability ([3]; first compound 0.253 µM)	relative viability ([3]; first compound 0.8 µM)	relative viability ([3]; first compound 2.53 µM)	relative viability ([3]; first compound 8 µM)	relative viability (TGX 221 + Pictilisib; first compound 0.253 µM)	relative viability (TGX 221 + Pictilisib; first compound 0.8 µM)	relative viability (TGX 221 + Pictilisib; first compound 2.53 µM)	relative viability (TGX 221 + Pictilisib; first compound 8 µM)	relative viability (TGX 221 + Pictilisib; first compound 0.08 µM)
HCC-827	0.691	0.862	0.699	0.881	0.739	0.283	0.25	0.244	0.305	0.282	0.666	0.946	0.95	0.872	0.918	0.979	1.09	0.896	0.732	1.02
HOP-62	0.795	0.728	0.591	0.958	0.756	0.364	0.336	0.301	0.348	0.279	0.586	0.856	0.607	0.647	0.522	0.742	0.544	0.682	0.689	0.694
IA-LM												1.37	0.856	1	0.376		0.423	0.288	0.412	0.276
LC-2-ad	0.778	0.951	0.822	0.743	0.759	0.268	0.288	0.279	0.306	0.257	0.627	0.643	0.705	0.722	0.654		0.444	0.491	0.473	0.453
LCLC-97TM1	0.406	1.02	0.72	0.707	0.425	0.177	0.179	0.16	0.182	0.166	0.614	1.42	0.636	0.724	0.431	0.196	0.165	0.164	0.188	0.197
LCLC-103H	0.372	0.39	0.519	0.469	0.434	0.51	0.453	0.431	0.456	0.519	0.722	0.81	0.707	0.767	0.728	0.592	0.678	0.577	0.609	0.566
LK-2		0.161	0.178	0.218	0.203	0.168	0.245	0.236	0.325	0.196	0.22	0.26	0.28	0.321	0.255	0.782	0.597	0.515	0.659	0.583
LOU-NH91	0.765	0.721	0.71	0.727	0.69	0.386	0.337	0.399	0.384	0.406	0.892	0.926	0.888	0.886	0.848	0.532	0.528	0.53	0.531	0.568
LU99A	0.3	0.263	0.27	0.345	0.301	0.191	0.138	0.265	0.178	0.335	0.501	0.478	0.702	0.49	0.425	0.303	0.32	0.357	0.317	0.268
LXF-289	0.666	0.801	0.778	0.865	0.732	0.818	0.871	0.909	0.926	0.89	0.902	0.831	0.833	0.82	0.907	0.751	0.711	0.746	0.729	0.789
NCI-H23	0.69	0.523	0.596	0.575	0.537	0.536	0.619	0.59	0.627	0.653	0.541	0.559	0.572	0.525	0.242	0.465	0.446	0.439	0.451	0.518
NCI-H522	0.606	0.73	0.86	0.771	0.657	0.965	1.02	1.04	0.911	0.878	0.929	0.898	1.06	0.921	0.86					
NCI-H727	0.474	0.671	0.668	0.519	0.52						1.38	1.26	1.24	1.21	1.05	0.464	0.402	0.43	0.356	0.455
NCI-H1299																0.728	0.787	0.654	0.617	0.74
NCI-H1563	0.672	0.746	0.7	0.774	0.745	0.64	0.688	0.774	0.746	0.783						0.622	0.573	0.634	0.638	0.651
NCI-H1623	0.469	0.453	0.382	0.427	0.419															
NCI-H1648	0.312		0.224	0.27	0.311		0.682	0.732	0.813	0.747		0.319	0.876	0.593	0.391					
NCI-H1703																0.264	0.251	0.202	0.234	0.234
NCI-H2342	0.555	0.702	0.561	0.664	0.555	0.769	0.938	0.713	0.755	0.712	0.801	0.83	0.871	0.71	0.586					
SW 900	0.461	0.628	0.426	0.462	0.356		0.487	0.453	0.464	0.47		0.633	0.412	0.406	0.358					
